Results taken from patent US20250195530A1, “POLQ INHIBITORS” (ASTRAZENECA AB, priority 2022, published 2025).

Assays:
[1] = tested on: DLD-1 cells; test: Inhibition of proliferation, DLD-1 BRCA2 wt control (Cell Titre Glo 3D); type: cell-based; conditions: Homo sapiens, DLD-1, 168 h, DLD-1 BRCA2 wt cells, 7 days; read-out: POLQ PD Prolif Lumin DLD1 mean pIC50 (converted)
How it was run: (§1)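 DLD-1 BRCA2−/− and parental DLD-1 cells exposed to 10-point dose range (10 μM to 0.51 nM, 3-fold) in RPMI/10% FBS at 37 °C, with medium and compound replenished on day 6. Viability by Cell Titre Glo 3D luminescence at day 7 (DLD-1) or day 12 (BRCA2−/−); IC50 as concentration halving maximum signal.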

[2] = tested on: DLD-1 BRCA2−/− cells; test: Homologous recombination synthetic lethal inhibition of proliferation, DLD-1 BRCA2-/- (Cell Titre Glo 3D); type: cell-based; conditions: Homo sapiens, DLD-1, 288 h, DLD-1 BRCA2−/− cells, 12 days; read-out: POLQ PD Prolif Lumin BRCA2 −/− mean pIC50 (converted)
How it was run: as §1

In the case of `CN1CCN(CCOc2ccc(-c3nc4c(OC5(C)CC5)ncnc4n3Cc3cccc(Cl)c3)c(Cl)c2)CC1` [Example E2, 8-(2-chloro-4-(2-(4-methylpiperazin-1-yl)ethoxy)phenyl)-9-(3-chlorobenzyl)-6-(1-methylcyclopropoxy)-9H-purine], the IC50 [1] is reported as 3160 nM and the IC50 [2] is reported as 25.1 nM.
With `CN1CCN(CCOc2ccc(-c3nc4c(OC5(C)CC5)ncnc4n3Cc3cccc(F)c3F)c(Cl)c2)CC1` [Example E3, 8-(2-chloro-4-(2-(4-methylpiperazin-1-yl)ethoxy)phenyl)-9-(2,3-difluorobenzyl)-6-(1-methylcyclopropoxy)-9H-purine] the IC50 [1] was 3980 nM and the IC50 [2] was 50.1 nM.
`CN1CCN(CCOc2ccc(-c3nc4c(OC5(C)CC5)ncnc4n3CCc3ccccc3)c(Cl)c2)CC1` [Example E4, 8-(2-chloro-4-(2-(4-methylpiperazin-1-yl)ethoxy)phenyl)-6-(1-methylcyclopropoxy)-9-phenethyl-9H-purine] showed an IC50 [1] of 7940 nM and an IC50 [2] of 200 nM.
`CN1CCN(CCOc2ccc(-c3nc4c(OC5(C)CC5)ncnc4n3Cc3ccccn3)c(Cl)c2)CC1` [Example E5, 8-(2-chloro-4-(2-(4-methylpiperazin-1-yl)ethoxy)phenyl)-6-(1-methylcyclopropoxy)-9-(pyridin-2-ylmethyl)-9H-purine] was tested, and the IC50 [1] was 7940 nM and the IC50 [2] was 501 nM.
Compound `CN1CCN(CCOc2ccc(-c3nc4c(OC5(C)CC5)ncnc4n3Cc3ncccn3)c(Cl)c2)CC1` [Example E6, 8-(2-chloro-4-(2-(4-methylpiperazin-1-yl)ethoxy)phenyl)-6-(1-methylcyclopropoxy)-9-(pyrimidin-2-ylmethyl)-9H-purine] has an IC50 [1] of over 10000 nM and an IC50 [2] of 1580 nM.
Work on `CC1(Oc2ncnc3c2nc(-c2ccc(OCCN4CCNCC4)cc2Cl)n3Cc2ccccn2)CC1` [Example E7, 8-(2-chloro-4-(2-(piperazin-1-yl)ethoxy)phenyl)-6-(1-methylcyclopropoxy)-9-(pyridin-2-ylmethyl)-9H-purine] yielded an IC50 [1] of over 10000 nM and an IC50 [2] of 1260 nM.
Work on `Cc1cc(N2CCC(N)CC2)ncc1-c1nc2c(OC3(C)CC3)ncnc2n1Cc1ccccc1` [Example F1, 1-(5-(9-benzyl-6-(1-methylcyclopropoxy)-9H-purin-8-yl)-4-methylpyridin-2-yl)piperidin-4-amine] yielded an IC50 [1] of over 10000 nM and an IC50 [2] of 398 nM.
In the case of `Cc1cc(N2CC(N(C)C)C2)ncc1-c1nc2c(OC3(C)CC3)ncnc2n1Cc1ccccc1` [Example F2, 1-(5-(9-benzyl-6-(1-methylcyclopropoxy)-9H-purin-8-yl)-4-methylpyridin-2-yl)-N,N-dimethylazetidin-3-amine], the IC50 [1] is reported as over 10000 nM and the IC50 [2] is reported as 316 nM.
Work on `Cc1cc(N2CCC(N(C)C)CC2)ncc1-c1nc2c(OC3(C)CC3)ncnc2n1Cc1ccccc1` [Example F3, 1-(5-(9-benzyl-6-(1-methylcyclopropoxy)-9H-purin-8-yl)-4-methylpyridin-2-yl)-N,N-dimethylpiperidin-4-amine] yielded an IC50 [1] of over 10000 nM and an IC50 [2] of 251 nM.
`Cc1cc(OCCCN2CCNCC2)ncc1-c1nc2c(OC3(C)CC3)ncnc2n1Cc1ccccc1` [Example G1, 9-benzyl-8-(4-methyl-6-(3-(piperazin-1-yl)propoxy)pyridin-3-yl)-6-(1-methylcyclopropoxy)-9H-purine] gave an IC50 [1] of 6310 nM and an IC50 [2] of 501 nM.
For `Cc1cc(OCCCN(C)C)ncc1-c1nc2c(OC3(C)CC3)ncnc2n1Cc1ccccc1` [Example G2, 3-((5-(9-benzyl-6-(1-methylcyclopropoxy)-9H-purin-8-yl)-4-methylpyridin-2-yl)oxy)-N,N-dimethylpropan-1-amine], the IC50 [1] was over 10000 nM and the IC50 [2] was 1000 nM.
Work on `CC(=O)N1CCN(CCCOc2cc(C)c(-c3nc4c(OC5(C)CC5)ncnc4n3Cc3ccccc3)cn2)CC1` [Example G3, 1-(4-(3-((5-(9-benzyl-6-(1-methylcyclopropoxy)-9H-purin-8-yl)-4-methylpyridin-2-yl)oxy)propyl)piperazin-1-yl)ethan-1-one] yielded an IC50 [1] of 6310 nM and an IC50 [2] of 1000 nM.
`CC(=O)N1CCN(CCOc2cc(C)c(-c3nc4c(OC5(C)CC5)ncnc4n3Cc3ccccc3)cn2)CC1` [Example G4, 1-(4-(2-((5-(9-benzyl-6-(1-methylcyclopropoxy)-9H-purin-8-yl)-4-methylpyridin-2-yl)oxy)ethyl)piperazin-1-yl)ethan-1-one] gave an IC50 [1] of over 10000 nM and an IC50 [2] of 1260 nM.
`Cc1cc(OCCCN2CCCC2)ncc1-c1nc2c(OC3(C)CC3)ncnc2n1Cc1ccccc1` [Example G5, 9-benzyl-8-(4-methyl-6-(3-(pyrrolidin-1-yl)propoxy)pyridin-3-yl)-6-(1-methylcyclopropoxy)-9H-purine] was tested, and the IC50 [1] was 7940 nM and the IC50 [2] was 398 nM.
Compound `Cc1cc(OCCN2CCNCC2)ncc1-c1nc2c(OC3(C)CC3)ncnc2n1Cc1ccccc1` [Example G6, 9-benzyl-8-(4-methyl-6-(2-(piperazin-1-yl)ethoxy)pyridin-3-yl)-6-(1-methylcyclopropoxy)-9H-purine] has an IC50 [1] of over 10000 nM and an IC50 [2] of 501 nM.
Compound `Cc1cc(OCCCN2CCOCC2)ncc1-c1nc2c(OC3(C)CC3)ncnc2n1Cc1ccccc1` [Example G7, 4-(3-((5-(9-benzyl-6-(1-methylcyclopropoxy)-9H-purin-8-yl)-4-methylpyridin-2-yl)oxy)propyl)morpholine] has an IC50 [1] of over 10000 nM and an IC50 [2] of 398 nM.
Work on `Cc1cc(OCCN)ncc1-c1nc2c(OC3(C)CC3)ncnc2n1Cc1ccccc1` [Example G8, 2-((5-(9-benzyl-6-(1-methylcyclopropoxy)-9H-purin-8-yl)-4-methylpyridin-2-yl)oxy)ethan-1-amine] yielded an IC50 [1] of 7940 nM and an IC50 [2] of 2000 nM.
With `Cc1cc(OCCCN)ncc1-c1nc2c(OC3(C)CC3)ncnc2n1Cc1ccccc1` [Example G9, 3-((5-(9-benzyl-6-(1-methylcyclopropoxy)-9H-purin-8-yl)-4-methylpyridin-2-yl)oxy)propan-1-amine] the IC50 [1] was 1580 nM and the IC50 [2] was 794 nM.
In the case of `CC(=O)N1CC(Oc2cc(C)c(-c3nc4c(OC5(C)CC5)ncnc4n3Cc3ccccc3)cn2)C1` [Example G10, 1-(3-((5-(9-benzyl-6-(1-methylcyclopropoxy)-9H-purin-8-yl)-4-methylpyridin-2-yl)oxy)azetidin-1-yl)ethan-1-one], the IC50 [1] is reported as over 10000 nM and the IC50 [2] is reported as 631 nM.
Compound `Cc1cc(O[C@H]2CCNC2)ncc1-c1nc2c(OC3(C)CC3)ncnc2n1Cc1ccccc1` [Example G11, (S)-9-benzyl-8-(4-methyl-6-(pyrrolidin-3-yloxy)pyridin-3-yl)-6-(1-methylcyclopropoxy)-9H-purine] has an IC50 [1] of 6310 nM and an IC50 [2] of 1260 nM.
`Cc1cc(OCCN(C)C)ncc1-c1nc2c(OC3(C)CC3)ncnc2n1Cc1ccccc1` [Example G12, 2-((5-(9-benzyl-6-(1-methylcyclopropoxy)-9H-purin-8-yl)-4-methylpyridin-2-yl)oxy)-N,N-dimethylethan-1-amine] showed an IC50 [1] of over 10000 nM and an IC50 [2] of 316 nM.
Work on `Cc1cc(O[C@H]2CCCNC2)ncc1-c1nc2c(OC3(C)CC3)ncnc2n1Cc1ccccc1` [Example G13, (S)-9-benzyl-8-(4-methyl-6-(piperidin-3-yloxy)pyridin-3-yl)-6-(1-methylcyclopropoxy)-9H-purine] yielded an IC50 [1] of over 10000 nM and an IC50 [2] of 501 nM.
`Cc1c(-c2nc3c(OC4(C)CC4)ncnc3n2Cc2ccccc2)ccnc1OCCN1CCNCC1` [Example G14, 9-benzyl-8-(3-methyl-2-(2-(piperazin-1-yl)ethoxy)pyridin-4-yl)-6-(1-methylcyclopropoxy)-9H-purine] gave an IC50 [1] of 7940 nM and an IC50 [2] of 794 nM.
Compound `Cc1cc(OC[C@H]2CNCCO2)ncc1-c1nc2c(OC3(C)CC3)ncnc2n1Cc1ccccc1` [Example G15, (R)-2-(((5-(9-benzyl-6-(1-methylcyclopropoxy)-9H-purin-8-yl)-4-methylpyridin-2-yl)oxy)methyl)morpholine] has an IC50 [1] of over 10000 nM and an IC50 [2] of 398 nM.
`Cc1cc(OC[C@H]2COCCN2)ncc1-c1nc2c(OC3(C)CC3)ncnc2n1Cc1ccccc1` [Example G16, (R)-3-(((5-(9-benzyl-6-(1-methylcyclopropoxy)-9H-purin-8-yl)-4-methylpyridin-2-yl)oxy)methyl)morpholine] showed an IC50 [1] of over 10000 nM and an IC50 [2] of 794 nM.
`CN1CCN(CCOc2cc(F)c(-c3nc4c(OC5(C)CC5)ncnc4n3Cc3ccccc3)c(F)c2)CC1` [Example H1, 9-benzyl-8-(2,6-difluoro-4-(2-(4-methylpiperazin-1-yl)ethoxy)phenyl)-6-(1-methylcyclopropoxy)-9H-purine] showed an IC50 [1] of 3980 nM and an IC50 [2] of 200 nM.
For `CN1CCN(CCOc2ccc(-c3nc4c(OC5(C)CC5)ncnc4n3Cc3ccccc3)c(F)c2)CC1` [Example H2, 9-benzyl-8-(2-fluoro-4-(2-(4-methylpiperazin-1-yl)ethoxy)phenyl)-6-(1-methylcyclopropoxy)-9H-purine], the IC50 [1] was 3160 nM and the IC50 [2] was 126 nM.
Compound `COc1cc(OCCN2CCN(C)CC2)ccc1-c1nc2c(OC3(C)CC3)ncnc2n1Cc1ccccc1` [Example H3, 9-benzyl-8-(2-methoxy-4-(2-(4-methylpiperazin-1-yl)ethoxy)phenyl)-6-(1-methylcyclopropoxy)-9H-purine] has an IC50 [1] of 7940 nM and an IC50 [2] of 631 nM.
`Cc1cc(OCCN2CCN(C)CC2)cc(C)c1-c1nc2c(OC3(C)CC3)ncnc2n1Cc1ccccc1` [Example H4, 9-benzyl-8-(2,6-dimethyl-4-(2-(4-methylpiperazin-1-yl)ethoxy)phenyl)-6-(1-methylcyclopropoxy)-9H-purine] was tested, and the IC50 [1] was over 10000 nM and the IC50 [2] was 251 nM.
For `CN1CCN(CCOc2ccc(-c3nc4c(OC5(C)CC5)ncnc4n3Cc3ccccc3)c(F)c2F)CC1` [Example H5, 9-benzyl-8-(2,3-difluoro-4-(2-(4-methylpiperazin-1-yl)ethoxy)phenyl)-6-(1-methylcyclopropoxy)-9H-purine], the IC50 [1] was 7940 nM and the IC50 [2] was 398 nM.
